Measurements reported in PubChem BioAssay AID330 (DTP/NCI, 2004).
Inconclusive results and toxic doses are left out. Rule for the calls: active = survival T/C of 150% or more; inactive = T/C below 125% in these data.

Tested on: P388 leukemia ip, CD2F1 mice, survival T/C
Assay: NCI In Vivo Anticancer Drug Screen. Data for tumor model P388 Leukemia (intraperitoneal) in CD2F1 (CDF1) mice
Conditions: endpoint: median survival time, higher = longer survival
Outline: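 Mice carrying the transplanted tumor received test compound or vehicle. Survival was recorded in each group, and the value is the treated-group measurement divided by that of the vehicle-treated control group.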

[1] = dose: 12.5 mg/kg/injection, schedule: Q01DX009 (ip), vehicle: saline
[2] = dose: 25.0 mg/kg/injection, schedule: Q01DX009 (ip), vehicle: saline
[3] = dose: 50.0 mg/kg/injection, schedule: Q01DX009 (ip), vehicle: saline
[4] = dose: 50.0 mg/kg/injection, schedule: Q01DX005 (ip), vehicle: saline with Tween-80
[5] = dose: 100.0 mg/kg/injection, schedule: Q01DX005 (ip), vehicle: saline with Tween-80
[6] = dose: 200.0 mg/kg/injection, schedule: Q01DX005 (ip), vehicle: saline with Tween-80
[7] = dose: 50.0 mg/kg/injection, schedule: Q01DX009 (ip), vehicle: saline with Tween-80

Measured: T/C

CN1C(=O)Cc2ccccc2C1=O
inactive: [1] 103 % of control | [2] 101 % of control | [3] 119 % of control | dose: 100.0 mg/kg/injection, schedule: Q01DX009 (ip), vehicle: saline 103 % of control

Fc1cccc(C(Nc2nncs2)Nc2nncs2)c1F
inactive: [4] 99 % of control | [5] 93 % of control | [6] 93 % of control

COc1ccc2ccc3c(c2c1)C(=O)C(CC(N)=O)C3 (stereo not drawn)
inactive: dose: 12.5 mg/kg/injection, schedule: Q01DX009 (ip), vehicle: distilled water + Tween-80 97 % of control | dose: 25.0 mg/kg/injection, schedule: Q01DX009 (ip), vehicle: distilled water + Tween-80 93 % of control | dose: 50.0 mg/kg/injection, schedule: Q01DX009 (ip), vehicle: distilled water + Tween-80 92 % of control | dose: 200.0 mg/kg/injection, schedule: Q01DX009 (ip), vehicle: distilled water + Tween-80 93 % of control

C(=C\c1ccnc2c1ccc1ccccc12)/c1ccccc1
inactive: dose: 12.5 mg/kg/injection, schedule: Q01DX005 (ip), vehicle: saline with Tween-80 96 % of control | dose: 25.0 mg/kg/injection, schedule: Q01DX005 (ip), vehicle: saline with Tween-80 96 % of control | [4] 90 % of control | [5] 88 % of control | [6] 88 % of control

Nc1nc(=O)n(C2CC(O)C(CO)O2)cc1Br (stereo not drawn)
inactive: dose: 100.0 mg/kg/injection, schedule: Q04DX003 (ip), vehicle: saline 91 % of control | dose: 200.0 mg/kg/injection, schedule: Q04DX003 (ip), vehicle: saline 100 % of control | dose: 400.0 mg/kg/injection, schedule: Q04DX003 (ip), vehicle: saline 104 % of control

CC(CNC(=O)CCOS(C)(=O)=O)CNC(=O)CCOS(C)(=O)=O
inactive: dose: 6.25 mg/kg/injection, schedule: Q01DX009 (ip), vehicle: saline 105 % of control | [1] 106 % of control | [2] 100 % of control | [3] 102 % of control

COC(=O)C1(C)CCCC2(C)c3cc(OC(C)=O)c(C(C)C)cc3CCC12 (stereo not drawn)
inactive: dose: 100.0 mg/kg/injection, schedule: Q01DX001 (ip), vehicle: saline 100 % of control | dose: 200.0 mg/kg/injection, schedule: Q01DX001 (ip), vehicle: saline 106 % of control | dose: 400.0 mg/kg/injection, schedule: Q01DX001 (ip), vehicle: saline 105 % of control

COc1cc(OC)cc(-c2n[se]c(-c3cc(OC)cc(OC)c3)n2)c1
inactive: dose: 1.56 mg/kg/injection, schedule: Q01DX009 (ip), vehicle: saline with Tween-80 87 % of control | [7] 89 % of control

N#CC1C(=O)NC(=S)NC1c1ccc(Cl)cc1 (stereo not drawn)
inactive: dose: 50.0 mg/kg/injection, schedule: Q01DX009 (ip), vehicle: Klucel (hydroxypropylcellulose) (HPC) 94 % of control | dose: 100.0 mg/kg/injection, schedule: Q01DX009 (ip), vehicle: Klucel (hydroxypropylcellulose) (HPC) 101 % of control

CC(=O)Nc1nc(C(C)(C)C)c([N+](=O)[O-])s1
inactive: [7] 95 % of control | dose: 100.0 mg/kg/injection, schedule: Q01DX009 (ip), vehicle: saline with Tween-80 104 % of control | dose: 200.0 mg/kg/injection, schedule: Q01DX009 (ip), vehicle: saline with Tween-80 95 % of control

CC1(C)CC2C1(O)CCC1(C)C(O)C=CC21CO (stereo not drawn)
inactive: dose: 6.0 mg/kg/injection, schedule: Q01DX005 (ip), vehicle: Klucel (hydroxypropylcellulose) (HPC) 98 % of control | dose: 12.0 mg/kg/injection, schedule: Q01DX005 (ip), vehicle: Klucel (hydroxypropylcellulose) (HPC) 95 % of control | dose: 24.0 mg/kg/injection, schedule: Q01DX005 (ip), vehicle: Klucel (hydroxypropylcellulose) (HPC) 100 % of control | dose: 25.0 mg/kg/injection, schedule: Q01DX005 (ip), vehicle: Klucel (hydroxypropylcellulose) (HPC) 93 % of control | dose: 48.0 mg/kg/injection, schedule: Q01DX005 (ip), vehicle: Klucel (hydroxypropylcellulose) (HPC) 90 % of control | dose: 50.0 mg/kg/injection, schedule: Q01DX005 (ip), vehicle: Klucel (hydroxypropylcellulose) (HPC) 93 % of control | dose: 100.0 mg/kg/injection, schedule: Q01DX005 (ip), vehicle: Klucel (hydroxypropylcellulose) (HPC) 90 % of control

c1ccc2c(c1)N=C(NNC1=Nc3ccccc3SC1)CS2
inactive: dose: 15.0 mg/kg/injection, schedule: Q01DX005 (ip), vehicle: saline with Tween-80 95 % of control | dose: 30.0 mg/kg/injection, schedule: Q01DX005 (ip), vehicle: saline with Tween-80 92 % of control | dose: 60.0 mg/kg/injection, schedule: Q01DX005 (ip), vehicle: saline with Tween-80 88 % of control
